According to patent US20100120690A1, “Polypeptides Having Antimicrobial Activity and Polynucleotides Encoding Same” (Novozymes Adenium Biotech A/S, priority 2005, published 2010):

Tests used:
Format in all cases: cell-based
[1] = test system: panel of 6 different strains of Staphylococcus aureus; assay: Average MIC, NCCLS/CLSI guidelines using caMHB (Example 6); details: average over 6 S. aureus strains, duplicate; MIC above 32 counted as 64; read after 18-24 hours at 37° C.
Description: A large number of antimicrobial peptides of the invention were tested against a panel of 6 different strains of Staphylococcus aureus listed below:
Staphylococcus aureus, ATCC29213, MSSA, NCCLS reference strain; Staphylococcus aureus, ATCC25923, MSSA, NCCLS reference strain; Staphylococcus aureus, ATCC29737, MSSA; Staphylococcus aureus, E33235, MSSA; Staphylococcus aureus, 698-01, MRSA ST5, Str, Kan, Oxa; Staphylococcus aureus, 566-03, MRSA ST80, Oxa, Tet, Fus, Kan.
The staphylococci were exposed to the following peptide concentrations: 32; 16; 8; 4; 2; 1; 0.5; 0.25; 0.13; […]; and 0.03 microgram/mL. All peptides were purified, HPLC quantified and the concentrated peptides (>160 micrograms/mL) were diluted to 160 micrograms/mL in peptide dilution buffer (0.1% BSA, 0.01% Acetic Acid).
The MIC determination was done essentially as described by NCCLS/CLSI guidelines using caMHB. The MICs were read after 18-24 hours of 37° C. incubations and recorded along with the CFU in the table below.
A total number of 95 antimicrobial peptides of the invention were evaluated in duplicate against the 6 bacterial strains described above.
In the majority of the double determinations (93%), the MIC varied <2 fold. An average MIC is tabulated below. If the MIC was above 32 micrograms/mL, a value of 64 was used to calculate the average.

[2] = test system: Staphylococcus aureus, ATCC 29737; assay: MIC, NCCLS/CLSI guidelines (Example 5), strain C; details: relative to wildtype Plectasin; average of two independent experiments
Description: (§1) Plectasin wild-type (SEQ ID NO: 1) and several variants of Plectasin were expressed and purified. The Minimal Inhibitory Concentration (MIC) was determined to test for their antimicrobial activity following the NCCLS guidelines from CLSI (Clinical and Laboratory Standards Institute; formerly known as National Committee for Clinical and Laboratory Standards).
(§2) The peptides were tested against the following strains: • A: Staphylococcus aureus, ATCC 29213; • B: Staphylococcus aureus, ATCC 25923; • C: Staphylococcus aureus, ATCC 29737; • D: Staphylococcus aureus, MRSA ST5 (2001), multi-resistant clinical human isolate from Statens Serum Institut, Denmark; • E: Staphylococcus aureus, MRSA ST80 (2003), multi-resistant clinical human isolate from Statens Serum Institut, Denmark.
(§3) All MIC values represent an average of two independent experiments; and all results in Table 5 are expressed relative to wildtype Plectasin:
(§4) 0: >100% of Plectasin wildtype MIC; 1: 80-100% of Plectasin wildtype MIC; 2: 50-80% of Plectasin wildtype MIC; 3: <50% of Plectasin wildtype MIC.

[3] = test system: Staphylococcus aureus, ATCC 29213; assay: MIC, NCCLS/CLSI guidelines (Example 5), strain A; details: relative to wildtype Plectasin; average of two independent experiments
Description: as §1, §2, §3, §4

[4] = test system: Staphylococcus aureus, ATCC 25923; assay: MIC, NCCLS/CLSI guidelines (Example 5), strain B; details: relative to wildtype Plectasin; average of two independent experiments
Description: as §1, §2, §3, §4

[5] = test system: Staphylococcus aureus, MRSA ST80 (2003); assay: MIC, NCCLS/CLSI guidelines (Example 5), strain E; details: relative to wildtype Plectasin; average of two independent experiments
Description: as §1, §2, §3, §4

[6] = test system: Staphylococcus aureus, MRSA ST5 (2001); assay: MIC, NCCLS/CLSI guidelines (Example 5), strain D; details: relative to wildtype Plectasin; average of two independent experiments
Description: as §1, §2, §3, §4

[7] = test system: Staphylococcus carnosus ATCC51365; assay: Yeast screening assay: radial diffusion assay of yeast supernatants; design: key: An activity of 3 is better than Plectasin; An activity of 2 corresponds to the activity of Plectasin; 1 is worse than Plectasin; details: yeast supernatant, clearing zone in radial diffusion assay
Summary of the method: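 Activity scores (1 worse, 2 equal, 3 better than wild-type plectasin) come from the size of the radial-diffusion clearing zone against S. carnosus at 5×10^5 cfu/mL. Test samples were culture supernatants of yeast transformants induced with galactose for 3 days at 30 °C, and plates were developed at 37 °C with MTT.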

Substance	Average MIC [1]	Relative MIC, strain C [2]	Relative MIC, strain A [3]	Relative MIC, strain B [4]	Relative MIC, strain E [5]	Relative MIC, strain D [6]	Activity (antimicrobial activity relative to the activity of plectasin) [7]
N5G + M13Y + N17K: variant of Plectasin (SEQ ID NO: 1) (GFGCGGPWDEDDYQCHKHCKSIKGYKGGYCAKGGFVCKCY)	5 micrograms/mL	3 (<50% of Plectasin wildtype MIC)	3 (<50% of Plectasin wildtype MIC)	3 (<50% of Plectasin wildtype MIC)	2 (50-80% of Plectasin wildtype MIC)	3 (<50% of Plectasin wildtype MIC)	–
D9A + Q14H + K26R + V36L: variant of Plectasin (SEQ ID NO: 1) (GFGCNGPWAEDDMHCHNHCKSIKGYRGGYCAKGGFLCKCY)	1 micrograms/mL	3 (<50% of Plectasin wildtype MIC)	3 (<50% of Plectasin wildtype MIC)	3 (<50% of Plectasin wildtype MIC)	3 (<50% of Plectasin wildtype MIC)	3 (<50% of Plectasin wildtype MIC)	–
N5G + Q14K: variant of Plectasin (SEQ ID NO: 1) (GFGCGGPWDEDDMKCHNHCKSIKGYKGGYCAKGGFVCKCY)	9 micrograms/mL	3 (<50% of Plectasin wildtype MIC)	2 (50-80% of Plectasin wildtype MIC)	2 (50-80% of Plectasin wildtype MIC)	2 (50-80% of Plectasin wildtype MIC)	0 (>100% of Plectasin wildtype MIC)	–
N5R + M13V: variant of Plectasin (SEQ ID NO: 1) (GFGCRGPWDEDDVQCHNHCKSIKGYKGGYCAKGGFVCKCY)	5 micrograms/mL	3 (<50% of Plectasin wildtype MIC)	3 (<50% of Plectasin wildtype MIC)	–	3 (<50% of Plectasin wildtype MIC)	2 (50-80% of Plectasin wildtype MIC)	–
N5S + D9S: variant of Plectasin (SEQ ID NO: 1) (GFGCSGPWSEDDMQCHNHCKSIKGYKGGYCAKGGFVCKCY)	6 micrograms/mL	3 (<50% of Plectasin wildtype MIC)	0 (>100% of Plectasin wildtype MIC)	3 (<50% of Plectasin wildtype MIC)	3 (<50% of Plectasin wildtype MIC)	2 (50-80% of Plectasin wildtype MIC)	–
N5S + D9S + M13L + Q14R + N17V + A31S: variant of Plectasin (SEQ ID NO: 1) (GFGCSGPWSEDDLRCHVHCKSIKGYKGGYCSKGGFVCKCY)	2 micrograms/mL	3 (<50% of Plectasin wildtype MIC)	3 (<50% of Plectasin wildtype MIC)	3 (<50% of Plectasin wildtype MIC)	3 (<50% of Plectasin wildtype MIC)	3 (<50% of Plectasin wildtype MIC)	–
N5G + M13L: variant of Plectasin (SEQ ID NO: 1) (GFGCGGPWDEDDLQCHNHCKSIKGYKGGYCAKGGFVCKCY)	4 micrograms/mL	3 (<50% of Plectasin wildtype MIC)	2 (50-80% of Plectasin wildtype MIC)	3 (<50% of Plectasin wildtype MIC)	3 (<50% of Plectasin wildtype MIC)	3 (<50% of Plectasin wildtype MIC)	–
GFGCNGPWDEDDMQCHNHCKSIKRYKGGYCAKGGFVCKCY [Mutation G24R]	8 micrograms/mL	–	1 (80-100% of Plectasin wildtype MIC)	2 (50-80% of Plectasin wildtype MIC)	2 (50-80% of Plectasin wildtype MIC)	2 (50-80% of Plectasin wildtype MIC)	2
D9S + Q14L + K26R: variant of Plectasin (SEQ ID NO: 1) (GFGCNGPWSEDDMLCHNHCKSIKGYRGGYCAKGGFVCKCY)	3 micrograms/mL	3 (<50% of Plectasin wildtype MIC)	3 (<50% of Plectasin wildtype MIC)	3 (<50% of Plectasin wildtype MIC)	3 (<50% of Plectasin wildtype MIC)	3 (<50% of Plectasin wildtype MIC)	–
D9S + Q14L: variant of Plectasin (SEQ ID NO: 1) (GFGCNGPWSEDDMLCHNHCKSIKGYKGGYCAKGGFVCKCY)	3 micrograms/mL	3 (<50% of Plectasin wildtype MIC)	3 (<50% of Plectasin wildtype MIC)	–	3 (<50% of Plectasin wildtype MIC)	3 (<50% of Plectasin wildtype MIC)	–
M13L + Q14K + K26R: variant of Plectasin (SEQ ID NO: 1) (GFGCNGPWDEDDLKCHNHCKSIKGYRGGYCAKGGFVCKCY)	9 micrograms/mL	3 (<50% of Plectasin wildtype MIC)	3 (<50% of Plectasin wildtype MIC)	–	–	3 (<50% of Plectasin wildtype MIC)	–
N5S + M13W + N17R: variant of Plectasin (SEQ ID NO: 1) (GFGCSGPWDEDDWQCHRHCKSIKGYKGGYCAKGGFVCKCY)	2 micrograms/mL	3 (<50% of Plectasin wildtype MIC)	3 (<50% of Plectasin wildtype MIC)	–	3 (<50% of Plectasin wildtype MIC)	3 (<50% of Plectasin wildtype MIC)	–
M13V + N17T: variant of Plectasin (SEQ ID NO: 1) (GFGCNGPWDEDDVQCHTHCKSIKGYKGGYCAKGGFVCKCY)	3 micrograms/mL	3 (<50% of Plectasin wildtype MIC)	–	3 (<50% of Plectasin wildtype MIC)	3 (<50% of Plectasin wildtype MIC)	3 (<50% of Plectasin wildtype MIC)	–
GFGCNGPWSEDDMQCHNHCKSIKGYKGGYCAKGGFVCKCY [Mutation D9S]	7 micrograms/mL	3 (<50% of Plectasin wildtype MIC)	2 (50-80% of Plectasin wildtype MIC)	3 (<50% of Plectasin wildtype MIC)	–	2 (50-80% of Plectasin wildtype MIC)	3
M13F + Q14K + K26R: variant of Plectasin (SEQ ID NO: 1) (GFGCNGPWDEDDFKCHNHCKSIKGYRGGYCAKGGFVCKCY)	6 micrograms/mL	3 (<50% of Plectasin wildtype MIC)	3 (<50% of Plectasin wildtype MIC)	–	3 (<50% of Plectasin wildtype MIC)	3 (<50% of Plectasin wildtype MIC)	–
GFGCNGPWDEDDMFCHNHCKSIKGYKGGYCAKGGFVCKCY [Mutation Q14F]	5 micrograms/mL	3 (<50% of Plectasin wildtype MIC)	1 (80-100% of Plectasin wildtype MIC)	–	3 (<50% of Plectasin wildtype MIC)	2 (50-80% of Plectasin wildtype MIC)	3
GFGCSGPWDEDDMRCHSHCKSIRGYKGGYCAKGGFVCKCY [N5S + Q14R + N17S + K23R]	8 micrograms/mL	3 (<50% of Plectasin wildtype MIC)	1 (80-100% of Plectasin wildtype MIC)	3 (<50% of Plectasin wildtype MIC)	–	3 (<50% of Plectasin wildtype MIC)	3
